# Laboratory results reported in patent US20220089600A1, “TGFß INHIBITOR AND PRODRUGS” (FUNDACIÓ INSTITUT DE RECERCA BIOMÈDICA (IRB BARCELONA), priority 2018, published 2022).
# Experiments:
# [1] = target: T1, human ALK5 (Homo sapiens, UniProt P36897); experiment: KinaseProfiler enzymatic activity inhibition; assay type: biochemical
# T1 construct: purchased Eurofins (Kinase Profiler service)
# T1 sequence (P36897 34-503): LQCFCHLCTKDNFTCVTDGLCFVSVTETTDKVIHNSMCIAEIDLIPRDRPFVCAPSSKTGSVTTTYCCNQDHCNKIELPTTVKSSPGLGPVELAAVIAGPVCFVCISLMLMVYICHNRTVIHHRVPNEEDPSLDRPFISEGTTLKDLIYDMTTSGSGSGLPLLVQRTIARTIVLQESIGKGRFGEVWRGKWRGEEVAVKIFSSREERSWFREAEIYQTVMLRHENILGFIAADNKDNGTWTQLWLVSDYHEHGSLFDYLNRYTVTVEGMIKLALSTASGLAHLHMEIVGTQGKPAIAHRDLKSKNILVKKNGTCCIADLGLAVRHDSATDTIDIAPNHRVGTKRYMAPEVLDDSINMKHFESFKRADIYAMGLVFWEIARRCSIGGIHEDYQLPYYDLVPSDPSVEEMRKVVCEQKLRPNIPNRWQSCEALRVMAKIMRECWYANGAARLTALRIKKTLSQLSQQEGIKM
# Protocol: Briefly, human ALK5 was incubated with 8 mM MOPS pH 7.0, 0.2 mM EDTA, 1 mM MnCl2, 2 mg/mL casein, 10 mM MgAcetate and [γ-33P-ATP] (specific activity approx. 500 cpm/pmol, concentration as required). The reaction was initiated by the addition of the MgATP mix. After incubation for 40 minutes at room temperature, the reaction was stopped by the addition of a 3% phosphoric acid solution. 10 μL of the reaction was then spotted onto a P30 filtermat and washed three times for 5 minutes in 75 mM phosphoric acid and once in methanol prior to drying and scintillation counting.
# Compounds were tested using a 9-point curve with half-Log serial dilutions. The top concentration tested was 10 μM. Test compounds were prepared in 100% DMSO.
# [2] = system: panel of 97 proteins; experiment: scanEDGE (KINOMEscan) selectivity panel; assay type: binding
# Protocol: Using scanEDGE (KINOMEscan, Eurofins) assays, the selectivity of the compound of formula I against a panel of 97 proteins was also measured. The selectivity profile of the compound of formula was good.
# [3] = system: TGFβ signaling (12×CAGA-Firefly_Luc reporter) in HEK293T cells; experiment: In vitro CAGA-Luciferase reporter assay; assay type: cell-based; conditions: Homo sapiens, HEK-293T, 5 ng/ml TGFB1, 16h, read-out: IC50, TGFβ signaling inhibition (CAGA-Luciferase)
# Protocol: HEK293T cells were purchased from the ATCC and cultured in DMEM supplemented with L-glutamine and 10% fetal bovine serum (Life Technologies) at 37° C. and 5% CO2. The cells were seeded in 24-well plates and transfected with plasmids encoding 12×CAGA-Firefly_Luc and Tk-Renilla_Luc (75 and 10 ng per well, respectively), using polyethylenimine (Polysciences) as transfection reagent. After 7h, medium was replaced for starvation medium (DMEM+0.05% FBS). […] Luciferase activity was measured 16h later using the Dual Luciferase Assay kit (Promega): media were aspirated, and cells were lysed in 200 μl passive lysis buffer (kit) for 20 minutes. Bioluminescence was measured in a Berthold Lumat LB6507 luminometer (18 μl reagents, 10 seconds measurements). […]
# When adding the luciferase substrate (luciferin) to the cell lysates, emission of light implies an active TGF-β pathway due to the production of pSMAD2/3-SMAD4, whereas no or little observed light would imply inhibition of the pathway by the inhibitor. Finally, the results could be normalized by the addition of Stop & Glo® which quenches the firefly luciferase enzyme/substrate and activates the Renilla transfection control, producing light which was again measured by the luminometer and used to normalize the data.
# [4] = system: MTO129 liver metastases; experiment: Mouse liver metastasis initiation/formation assay with MTOs; assay type: in vivo; conditions: for Efficacy (Cure rate): two weeks, mice with no metastases
# Text: Mouse tumor organoids (MTOs) are derived from compound transgenic mice (conditional mutations in Apc, Kras, Trp53 and Tgfbr2, as well as bearing Lgr5-EGFP/CreER^T2) of the C57BL6/J strain and cultured as described in Tauriello et al. 2018 Nature 554(7693): 538-543. doi: 10.1038/nature25492. Organoids are tumor epithelial cells grown in a 3D matrix where they adopt an organotypic architecture, typically as spheroids with a lumen. In this way, cells retain a relatively normal polarity (which means that the outside surface, inside/luminal surface and cell-cell contacts are individually specialized), which is more physiological than in conventional 2D cell culture.
# In all experiments described in present invention MTO129 were used (Tauriello et al. Nature. 2018).
# In patients, treatment doses were reduced to 80 to 150 mg b.i.d in a regime of 14 days on-14 days off.
# MTOs expressing a luciferase reporter were measured by bioluminescence imaging, using retroorbital injection of 50 μl 15 mg/ml D-luciferin potassium salt (Resem BV). Photons per second from the region spanning thorax/abdomen were quantified and normalized to the measure at the day of injection.
# Control mice were treated with 150 μl of vehicle.
# In the experiment shown in FIG. 13, potency of the indicated compounds to inhibit metastasis formation was assessed. Mice were treatments with indicated compounds started two days after MTO129 transplantation and continued during two weeks. Mice were sacrificed at 4 weeks post transplantation and liver metastases (LiMs) were counted by eye on fixed livers.
# [5] = system: HEK293T cells; experiment: In vitro cytotoxicity, XTT assay; assay type: cell-based; conditions: 24h
# Protocol: To assess the toxicity of the compound of formula I in vitro, HEK293T cells were seeded in 96-well plates and treated for 24h with indicated compounds. DMSO was used as a control.
# Cell viability was assessed by the XTT assay (Biological Industries), according to the manufacturer's instructions, incubating for 4h prior to measurement.
structure (smiles),measurement,setting,value
"Cc1cccc(-c2nn3c(c2-c2ccnc4ccc(O)cc24)CCC3)n1 [compound of formula I, 4-(2-(6-methylpyridin-2-yl)-5,6-dihydro-4H-pyrrolo[1,2-b]pyrazol-3-yl)quinolin-6-ol]",IC50,"[1]; KinaseProfiler, 9-point curve, top 10 μM, read-out: Enzyme activity inhibition IC50 (nM) ALK5 (TGFBR1)",177 nM
same,"ALK5 enzymatic potency, times more potent than prodrug of formula (III)",[1]; from Table 2,4.7 times
same,"ALK5 enzymatic potency, times more potent than prodrug of formula (IV)",[1]; from Table 2,12.9 times
same,"ALK5 enzymatic potency, times more potent than reference compound 337",[1]; from Table 2,1.8 times
same,"ALK5 enzymatic potency, times more potent than reference compound 338",[1]; from Table 2,2.1 times
same,selectivity profile,[2],good
same,IC50,[3],165 nM
same,Efficacy (Cure rate),[4]; 0.3x dose,~90%
same,Efficacy (Cure rate),[4]; 1x dose,~90%
same,Efficacy (Cure rate),[4]; 3x dose,100%
same,Efficacy (Cure rate),[4]; 9x dose,100%
same,liver tumor count (LiMs) compared to galunisertib,"[4]; FIG. 3, 0.3× to 9× doses",significant lower amount of liver tumors
same,metastatic tumor growth inhibitory capacity (bioluminescence),"[4]; FIG. 4, 0.3× dose, day 3 until day 14",effective
same,"activity in preventing liver metastasis formation, in words","[4]; FIG. 13, 0.3× dose (21.25 mg/Kg b.i.d)",still effective
same,"activity in preventing liver metastasis formation, in words","[4]; FIG. 13, 1× dose",significant improved activity
same,"effective dose, fold lower than the effective Galunisertib dose",[4]; in vivo experiments,10 fold
same,effective dose (>50% efficacy),"[4]; oral, divided b.i.d.",42.5 mg/kg/day
same,Cell viability,[5]; 30 μM,93%
same,Cell viability,[5]; 100 μM,64%
